{
  "source": "paper PMC9963398",
  "about": "“Discovery of New Quinolone-Based Diarylamides as Potent B-RAF^V600E/C-RAF Kinase Inhibitors Endowed with Promising In Vitro Anticancer Activity” (International Journal of Molecular Sciences, 2023)",
  "key": {"B-RAF^V600E [1]": {"molecular_target": "T1, B-RAF^V600E (Homo sapiens, UniProt P15056, V600E)", "T1 construct": "purchased Reaction Biology Corporation (RBC), Kinase HotSpot service", "T1 sequence (P15056 whole entry V600E)": "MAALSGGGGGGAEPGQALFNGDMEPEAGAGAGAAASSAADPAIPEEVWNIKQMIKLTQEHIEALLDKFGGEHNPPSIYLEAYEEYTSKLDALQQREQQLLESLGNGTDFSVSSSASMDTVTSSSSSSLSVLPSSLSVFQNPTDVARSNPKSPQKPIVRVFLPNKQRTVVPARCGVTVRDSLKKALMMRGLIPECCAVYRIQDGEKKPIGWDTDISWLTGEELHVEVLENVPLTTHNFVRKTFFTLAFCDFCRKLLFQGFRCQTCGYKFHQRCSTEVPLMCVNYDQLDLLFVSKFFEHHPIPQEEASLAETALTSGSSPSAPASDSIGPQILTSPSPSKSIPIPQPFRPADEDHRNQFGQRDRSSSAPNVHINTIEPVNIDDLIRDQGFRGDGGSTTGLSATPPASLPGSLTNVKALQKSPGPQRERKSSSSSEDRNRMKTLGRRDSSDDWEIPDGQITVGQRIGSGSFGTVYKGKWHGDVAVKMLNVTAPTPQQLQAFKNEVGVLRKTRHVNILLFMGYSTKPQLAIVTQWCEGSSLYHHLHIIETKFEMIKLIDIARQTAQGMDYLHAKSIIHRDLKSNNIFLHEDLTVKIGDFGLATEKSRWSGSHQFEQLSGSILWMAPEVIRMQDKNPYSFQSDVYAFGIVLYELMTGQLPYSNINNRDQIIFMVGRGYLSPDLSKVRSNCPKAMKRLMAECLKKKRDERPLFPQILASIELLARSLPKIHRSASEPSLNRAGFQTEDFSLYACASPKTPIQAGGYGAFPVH", "parameters": "method as in PMID 24900673, PMID 33780623", "conditions": "cited from earlier work"}, "EGFR": {"test_system": "EGFR", "parameters": "method as in PMID 24588073", "conditions": "cited from earlier work"}, "RAF": {"test_system": "RAF", "parameters": "method as in PMID 28368067", "conditions": "cited from earlier work"}, "C-RAF [2]": {"molecular_target": "T2, C-RAF (Homo sapiens, UniProt P04049)", "T2 sequence (P04049 whole entry)": "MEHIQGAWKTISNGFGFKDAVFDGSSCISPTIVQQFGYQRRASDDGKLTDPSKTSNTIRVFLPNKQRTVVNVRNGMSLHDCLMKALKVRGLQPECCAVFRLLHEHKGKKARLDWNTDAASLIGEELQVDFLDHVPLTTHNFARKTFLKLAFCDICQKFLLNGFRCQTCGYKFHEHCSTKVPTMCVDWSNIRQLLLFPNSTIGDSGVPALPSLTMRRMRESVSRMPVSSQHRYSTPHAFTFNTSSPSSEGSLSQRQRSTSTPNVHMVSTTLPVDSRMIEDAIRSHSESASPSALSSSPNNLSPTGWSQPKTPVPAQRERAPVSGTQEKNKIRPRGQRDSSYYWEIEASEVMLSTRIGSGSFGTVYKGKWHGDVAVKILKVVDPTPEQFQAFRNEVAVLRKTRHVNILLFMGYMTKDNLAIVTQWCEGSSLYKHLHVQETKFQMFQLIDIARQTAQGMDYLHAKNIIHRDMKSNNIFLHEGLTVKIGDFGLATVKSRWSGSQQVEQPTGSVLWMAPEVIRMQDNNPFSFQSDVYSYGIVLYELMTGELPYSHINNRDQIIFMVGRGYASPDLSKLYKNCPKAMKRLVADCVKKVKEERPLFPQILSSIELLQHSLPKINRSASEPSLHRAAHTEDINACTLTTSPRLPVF", "test": "HotSpot kinase assay (RBC), C-RAF", "conditions": "IC50 C-RAF, 10 µM ATP, 10-dose singlicate IC50 mode", "description": "Reaction Biology Corporation (RBC) Kinase HotSpotSM service was utilized for cell-free biochemical kinase evaluation of the target compounds according to the reported assay protocol [46]."}, "B-RAF^V600E [3]": {"molecular_target": "T1, B-RAF^V600E", "test": "HotSpot kinase assay (RBC), B-RAF^V600E", "format": "biochemical", "conditions": "10 µM ATP, 10-dose singlicate IC50 mode"}, "B-RAF": {"test_system": "B-RAF", "parameters": "method as in PMID 25461318", "conditions": "cited from earlier work"}, "B-RAF^WT": {"test_system": "B-RAF^WT", "parameters": "method as in PMID 25835317", "conditions": "cited from earlier work"}, "Src": {"test_system": "Src", "parameters": "method as in PMID 25835317", "conditions": "cited from earlier work"}, "B-RAF^V600E [4]": {"molecular_target": "T1, B-RAF^V600E", "conditions": "cited from earlier work"}, "C-RAF [5]": {"molecular_target": "T2, C-RAF", "conditions": "at 10 µM; cited from earlier work"}},
  "note": "Read-outs that look alike come from different tables or passages of the source.",
  "data": [
    {"smiles": "CCCS(=O)(=O)Nc1ccc(F)c(C(=O)c2c[nH]c3ncc(-c4ccc(Cl)cc4)cc23)c1F", "note": "[vemurafenib]", "values": [
      {"measurement": "selectivity against B-RAF^V600E than its wild type", "setting": "B-RAF^V600E [1]", "value": 100, "unit": "fold"}
    ]},
    {"smiles": "Cc1ccc(C(=O)Nc2ccc(CN3CCN(C)CC3)c(C(F)(F)F)c2)cc1NC(=O)c1cnc2[nH]ccc2c1", "note": "[Compound IV]", "values": [
      {"measurement": "IC50", "setting": "EGFR", "value": 8, "unit": "nM"}
    ]},
    {"smiles": "Cc1ccc(C(=O)Nc2ccc(Cl)c(C(F)(F)F)c2)cc1NC(=O)C1(c2ccnc(NCCN3CCN(C)CC3)n2)CC1", "note": "[III]", "values": [
      {"measurement": "IC50 values, pan-RAF", "setting": "RAF", "value": "two digits nanomolar"}
    ]},
    {"smiles": "COc1ccc2nc(Nc3cccc(NC(=O)c4ccc(CN5CCCN(C)CC5)c(C(F)(F)F)c4)c3)ccc2c1", "note": "[Compound 16b, N-(3-((6-methoxyquinolin-2-yl)amino)phenyl)-4-((4-methyl-1,4-diazepan-1-yl)methyl)-3-(trifluoromethyl)benzamide]", "values": [
      {"measurement": "IC50", "setting": "C-RAF [2]", "value": "164 ± 6.05", "unit": "nM"},
      {"measurement": "IC50", "setting": "B-RAF^V600E [3]", "value": "308 ± 14.9", "unit": "nM"}
    ]},
    {"smiles": "O=C(Nc1ccc(Cl)c(C(F)(F)F)c1)c1ccc(Cl)c(C(=O)Nc2ccc(-c3ncc[nH]3)nc2)c1", "note": "[II]", "values": [
      {"measurement": "IC50", "setting": "B-RAF", "value": 531, "unit": "nM"}
    ]},
    {"smiles": "CC(C)(C)c1nc(-c2cccc(NS(=O)(=O)c3c(F)cccc3F)c2F)c(-c2ccnc(N)n2)s1", "note": "[dabrafenib]", "values": [
      {"measurement": "selectivity against B-RAF^V600E than its wild type", "setting": "B-RAF^V600E [1]", "value": 500, "unit": "fold"}
    ]},
    {"smiles": "CCn1nc(C#Cc2cc(C(=O)Nc3ccc(CN4CCN(C)CC4)c(C(F)(F)F)c3)ccc2C)c2c(N)ncnc21", "note": "[V]", "values": [
      {"measurement": "IC50", "setting": "B-RAF^WT", "value": 15, "unit": "nM"},
      {"measurement": "IC50", "setting": "Src", "value": 0.9, "unit": "nM"},
      {"measurement": "IC50", "setting": "B-RAF^V600E [4]", "value": 92, "unit": "nM"}
    ]},
    {"smiles": "COc1cc2cc(Oc3ccc(NC(=O)c4cc(C(F)(F)F)cc(C(F)(F)F)c4)cc3)c(C)nc2cc1OC", "note": "[VI]", "values": [
      {"measurement": "inhibition of C-RAF", "setting": "C-RAF [5]", "value": 77, "unit": "%"}
    ]}
  ]
}
